From ChEMBL document CHEMBL3853353, “Identification and optimization of a new series of anti-tubercular quinazolinones” (Bioorg Med Chem Lett, 2016)
pIC50: −log10 of the molar value. ≈ marks a conversion by molar mass, not a printed value.

Tests used:
[1] = Protein binding in Swiss mouse plasma at 1 to 10 uM after 4 hrs by LC-MS/MS analysis; format: ADME, cell-free; conditions: read-out: PPB (converted)
[2] = Cytotoxicity against human HepG2 cells assessed as reduction in cell viability after 40 hrs by Celltiter-Glo assay
[3] = tested on: Mycobacterium tuberculosis; experiment: (§1) Antimycobacterial activity against Mycobacterium tuberculosis H37Rv infected in Balb/c mouse assessed as bacterial burden in lungs at 100 mg/kg, po administered daily through gavage starting on day 2 post infection for 4 days per week for 2 weeks as VitE/PEG200/HPC formulation measured on day 12 post infection (reference value: 7.8 log10CFU); format: functional, Lung
[4] = Ratio of drug level in Mycobacterium tuberculosis H37Rv infected Balb/c mouse lung to plasma at 100 mg/kg, po administered through gavage as VitE/PEG200/HPC formulation; conditions: other tissue
[5] = tested on: Mycobacterium tuberculosis; experiment: Antimycobacterial activity against Mycobacterium tuberculosis H37Rv incubated for 5 days by Bactiter-Glo assay; format: functional; conditions: 120 h
[6] = Protein binding in human plasma at 1 to 10 uM after 4 hrs by LC-MS/MS analysis; format: ADME, cell-free; conditions: read-out: PPB (converted)
[7] = tested on: Mycobacterium tuberculosis; experiment: as §1, with “10” for “100”; format: functional, Lung
Mus musculus = experiment: Toxicity in Balb/c mouse infected with Mycobacterium tuberculosis H37Rv at 300 mg/kg, po administered through gavage as single dose; format: organism-based; conditions: in vivo
[8] = tested on: Mycobacterium tuberculosis; experiment: Antimycobacterial activity against Mycobacterium tuberculosis H37Rv incubated for 5 days in presence of 25% human serum by Bactiter-Glo assay; format: functional; conditions: 120 h
[9] = AUC in Balb/c mouse plasma infected with Mycobacterium tuberculosis H37Rv at 100 mg/kg, po administered through gavage as VitE/PEG200/HPC formulation; format: ADME, organism-based
[10] = tested on: Mycobacterium tuberculosis; experiment: Antimycobacterial activity against GFP-tagged Mycobacterium tuberculosis H37Rv infected in mouse RAW264.7 cells incubated for 4 days by Mask blue/Hoechst/FITC staining based fluorescence microscopic analysis; format: functional; conditions: 96 h
[11] = tested on: Mycobacterium tuberculosis; experiment: as §1, with “30” for “100”; format: functional, Lung
[12] = tested on: Mycobacterium tuberculosis; experiment: Antimycobacterial activity against Mycobacterium tuberculosis H37Rv incubated for 5 days in presence of 25% mouse serum by Bactiter-Glo assay; format: functional; conditions: 120 h
[13] = Half life in Balb/c mouse infected with Mycobacterium tuberculosis H37Rv at 100 mg/kg, po administered through gavage as VitE/PEG200/HPC formulation; format: ADME, organism-based; conditions: in vivo
[14] = tested on: Mycobacterium tuberculosis; experiment: Antimycobacterial activity against Mycobacterium tuberculosis H37Rv infected in Balb/c mouse assessed as bacterial burden in lungs at 10 mg/kg, po administered daily through gavage for 2 weeks starting on day 2 post infection measured on day 12 post infection (reference value: 6.4 log10CFU); format: functional, Lung
[15] = tested on: Mycobacterium tuberculosis; experiment: as §1, with “10” for “100”, “weeks” for “weeks as VitE/PEG200/HPC formulation”; format: functional, Lung
[16] = tested on: Mycobacterium tuberculosis; experiment: as §1, with “25” for “100”, “Vitamin-E/PEG200” for “VitE/PEG200/HPC”, “formulation each 4 days dosing followed by 2 days compound washout” for “formulation”, “8” for “7.8”; format: functional, Lung
Cytochrome P450 3A4 [17] = target: T1, Cytochrome P450 3A4 (Homo sapiens, UniProt P08684); experiment: Inhibition of CYP3A4 in human liver microsomes assessed as 1'-hydroxymidazolam metabolite formation using midazolam as substrate incubated for 10 mins by HPLC-MS method
[18] = tested on: Mycobacterium tuberculosis; experiment: Ratio of MIC80 for Mycobacterium tuberculosis H37Rv in presence of 25% human serum to MIC80 for Mycobacterium tuberculosis H37Rv; format: functional
[19] = Oral bioavailability in Swiss mouse at 100 mg/kg administered as single dose through gavage as 90%/10% PEG200/vitamin -E TPGS formulation after 24 hrs; format: ADME, organism-based; conditions: in vivo
[20] = Aqueous equilibrium solubility of compound in pH 7.4 solution at 20 degC; conditions: aqueous pH 7.4 solution
Cytochrome P450 3A4 [21] = target: T1, Cytochrome P450 3A4; experiment: Inhibition of CYP3A4 in human liver microsomes assessed as 6-beta-hydroxytestosterone metabolite formation using testosterone as substrate incubated for 30 mins by HPLC-MS method
[22] = tested on: Mycobacterium tuberculosis; experiment: Antimycobacterial activity against Mycobacterium tuberculosis H37Rv infected in Balb/c mouse assessed as bacterial burden in lungs at 10 to 300 mg/kg administered daily through gavage for 4 days separated by 2 days drug wash out followed by second 4 days drug treatment; format: functional, Lung
[23] = tested on: Mycobacterium tuberculosis; experiment: as §1, with “Vitamin-E/PEG200” for “VitE/PEG200/HPC”, “formulation each 4 days dosing followed by 2 days compound washout” for “formulation”, “8” for “7.8”; format: functional, Lung
[24] = Half life in Balb/c mouse infected with Mycobacterium tuberculosis H37Rv at 100 mg/kg, po administered through gavage as 90%/10% PEG200/vitamin -E TPGS formulation; format: ADME, organism-based; conditions: in vivo
[25] = Aqueous equilibrium solubility of compound in pH 1 solution at 20 degC; conditions: aqueous pH 1 solution
[26] = tested on: Mycobacterium tuberculosis; experiment: Antimycobacterial activity against Mycobacterium tuberculosis H37Rv in 100000 bacteria inoculated agar plate; format: functional
[27] = AUC in Balb/c mouse plasma infected with Mycobacterium tuberculosis H37Rv at 100 mg/kg, po administered through gavage as 90%/10% PEG200/vitamin -E TPGS formulation; format: ADME, organism-based
[28] = Permeability in human Caco2 cells; conditions: caco-2
[29] = Lipophilicity, log P of compound; conditions: octanol/water
[30] = Time at which plasma concentration stays above invitro MIC80 in presence of mouse serum in Balb/c mouse infected with Mycobacterium tuberculosis H37Rv at 100 mg/kg, po administered through gavage as 90%/10% PEG200/vitamin -E TPGS formulation; format: ADME, organism-based; conditions: in vivo
[31] = tested on: Mycobacterium tuberculosis; experiment: as §1, with “200” for “100”, “Vitamin-E/PEG200” for “VitE/PEG200/HPC”, “formulation each 4 days dosing followed by 2 days compound washout” for “formulation”, “8” for “7.8”; format: functional, Lung
[32] = tested on: Mycobacterium tuberculosis; experiment: as §1, with “50” for “100”, “Vitamin-E/PEG200” for “VitE/PEG200/HPC”, “formulation each 4 days dosing followed by 2 days compound washout” for “formulation”, “8” for “7.8”; format: functional, Lung
[33] = tested on: Mycobacterium tuberculosis; experiment: Antimycobacterial activity against Mycobacterium tuberculosis H37Rv in 1000 bacteria inoculated agar plate; format: functional
[34] = tested on: Mycobacterium tuberculosis; experiment: Antimycobacterial activity against Mycobacterium tuberculosis H37Rv infected in po dosed Balb/c mouse assessed as reduction in bacterial burden in lungs administered daily through gavage starting on day 2 post infection for 8 consecutive days; format: functional; conditions: Lung, 48 h, read-out: MED
[35] = tested on: Mycobacterium tuberculosis; experiment: Antimycobacterial activity against Mycobacterium tuberculosis H37Rv infected in Balb/c mouse assessed as bacterial burden in lungs at 10 to 300 mg/kg administered daily through gavage starting on day 2 post infection for 8 consecutive days; format: functional, Lung
[36] = Solubility in 90%/10% PEG200/vitamin -E TPGS solution; format: physicochemical
[37] = Time at which lung concentration stays above invitro MIC80 in presence of mouse serum in Balb/c mouse infected with Mycobacterium tuberculosis H37Rv at 100 mg/kg, po administered through gavage as 90%/10% PEG200/vitamin -E TPGS formulation; format: ADME, organism-based; conditions: in vivo
[38] = Ratio of drug level in Mycobacterium tuberculosis H37Rv infected Balb/c mouse lung to plasma at 100 mg/kg, po administered through gavage as 90%/10% PEG200/vitamin -E TPGS formulation; format: ADME, organism-based; conditions: lung and plasma
[39] = tested on: Mycobacterium tuberculosis; experiment: as §1, with “12.5” for “100”, “Vitamin-E/PEG200” for “VitE/PEG200/HPC”, “formulation each 4 days dosing followed by 2 days compound washout” for “formulation”, “8” for “7.8”; format: functional, Lung

T1 sequence (P08684 whole entry): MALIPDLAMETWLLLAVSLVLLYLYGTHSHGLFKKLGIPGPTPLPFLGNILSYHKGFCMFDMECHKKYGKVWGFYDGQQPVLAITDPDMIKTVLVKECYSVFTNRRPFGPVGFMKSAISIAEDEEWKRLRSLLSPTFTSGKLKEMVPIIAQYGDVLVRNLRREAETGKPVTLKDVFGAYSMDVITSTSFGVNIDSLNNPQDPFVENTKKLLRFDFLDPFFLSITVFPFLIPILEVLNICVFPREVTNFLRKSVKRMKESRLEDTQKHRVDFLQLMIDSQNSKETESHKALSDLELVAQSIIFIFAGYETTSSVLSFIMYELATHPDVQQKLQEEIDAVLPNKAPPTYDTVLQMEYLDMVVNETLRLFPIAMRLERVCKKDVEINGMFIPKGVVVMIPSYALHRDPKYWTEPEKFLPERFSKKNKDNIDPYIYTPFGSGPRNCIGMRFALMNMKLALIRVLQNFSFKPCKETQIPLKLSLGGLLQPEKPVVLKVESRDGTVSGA

For Cn1c(NCCc2ccc(-c3ccc(F)cc3)cc2)nc2cc(N)ccc2c1=O, the fraction unbound at 4 h [1] was 0.002, the IC50 at 40 h ([2]; hepg2) was > 30 µM and the Activity [3] was 7. For the same compound, the Kp [4] was 4.5, the MIC80 [5] was 0.01 µM (≈ 0.00388 µg/mL) and the fraction unbound at 4 h [6] was 0.002. For the same compound, the Activity [7] was 7.4, the Activity (Mus musculus) was “Toxic” and the MIC80 [8] was 0.01 µM. The AUC [9] was 29000 ng·h/mL, the MIC80 [10] was 0.06 µM (≈ 0.0233 µg/mL) and the Activity [11] was 7.1. The MIC80 [12] was 0.007 µM and the half-life [13] was 6 h.

Work on CO[C@H]1/C=C/O[C@@]2(C)Oc3c(C)c(O)c4c(O)c(c(/C=N/N5CCN(C)CC5)c(O)c4c3C2=O)NC(=O)/C(C)=C\C=C\[C@H](C)[C@H](O)[C@@H](C)[C@@H](O)[C@@H](C)[C@H](OC(C)=O)[C@@H]1C [RIFAMPIN] yielded an Activity [14] of 3.9 log10CFU and an Activity [15] of 5.2.

With Cn1c(NCCc2ccc(-c3ccc(F)cc3)cc2)nc2cc(Cl)ccc2c1=O the Activity [16] was 7.6 log10CFU, the pIC50 (Cytochrome P450 3A4 [17]) was < 4.52 and the Ratio [18] was 8. For the same compound, the bioavailability [19] was 73%, the fraction unbound at 4 h [1] was 0.001 and the solubility thermodynamic [20] was < 0.001 mg/mL. The IC50 at 40 h ([2]; HepG2 cells) was 22 µM, the pIC50 (Cytochrome P450 3A4 [21]) was 4.74 and the Activity [22] was 1.5 log10CFU. For the same compound, the Activity [23] was 7.6 log10CFU, the half-life [24] was 8 h and the solubility thermodynamic [25] was < 0.001 mg/mL. It also gave an MIC80 [5] of 0.003 µM (≈ 0.00122 µg/mL), a fraction unbound at 4 h [6] of 0.001 and an MIC [26] of 2 µg/mL (≈ 4.9 µM). For the same compound, the AUC [27] was 76000 ng·h/mL, the permeability [28] was “Permeable” and the logP [29] was 5.28. For the same compound, the MIC80 [8] was 0.025 µM, the Time [30] was > 24 h and the Activity [31] was 7.6 log10CFU. For the same compound, the MIC80 [10] was 0.06 µM (≈ 0.0245 µg/mL), the MIC80 [12] was 0.034 µM and the Activity [32] was 7.4 log10CFU. The MIC [33] was 0.016 µg/mL (≈ 0.0392 µM), the minimal effective dose [34] was 300 mg/kg and the Activity [35] was 0.78 log10CFU. The solubility [36] was 20 mg/mL (≈ 49000 µM), the Time [37] was > 24 h and the Kp [38] was 14. For the same compound, the Activity [39] was 7.7 log10CFU.
